Measured values published in patent EP0183129A1, “Quinolonecarboxylic acid derivatives” (KYORIN PHARMACEUTICAL CO., LTD., priority 1984, dated 1986).

Assays:
[1] = tested on: Streptococcus pyogenes S-8; experiment: In vitro antibacterial activity, MIC (standard strain); format: cell-based; conditions: Streptococcus pyogenes, S8
[2] = tested on: P. aeruginosa IID 1210; experiment: as above; format: cell-based; conditions: Pseudomonas aeruginosa, IID1210
[3] = tested on: S. faecalis 214; experiment: In vitro antibacterial activity, MIC (clinical isolates); format: cell-based; conditions: Enterococcus faecalis, 214
[4] = tested on: Acinetobacter anitratus IID 876; experiment: In vitro antibacterial activity, MIC (standard strain); format: cell-based; conditions: Acinetobacter calcoaceticus, IID876
[5] = tested on: S. agalactiae 4342; experiment: In vitro antibacterial activity, MIC (clinical isolates); format: cell-based; conditions: Streptococcus agalactiae, 4342
[6] = tested on: S. pneumoniae 2054; experiment: as above; format: cell-based; conditions: Streptococcus pneumoniae, 2054
[7] = tested on: Morganella morganii IID 602; experiment: In vitro antibacterial activity, MIC (standard strain); format: cell-based; conditions: Morganella morganii, IID602
[8] = tested on: Shigella sonnei IID 969; experiment: as above; format: cell-based; conditions: IID969, 10^6 cells/ml
Description: Experiment-1 In vitro antibacterial activity
The in vitro antibacterial activity against gram-positive and gram-negative bacteria has been investivated.
The minimum inhibitory concentration (MIC) was determined in accordance with the method recommended by Japan Society of Chemotherapy.

[9] = tested on: S. pyogenes IID 692; experiment: as above; format: cell-based; conditions: Streptococcus pyogenes, IID692
[10] = tested on: S. agalactiae 4368; experiment: In vitro antibacterial activity, MIC (clinical isolates); format: cell-based; conditions: Streptococcus agalactiae, 4368
[11] = tested on: S. pyogenes 3107; experiment: as above; format: cell-based; conditions: Streptococcus pyogenes, 3107
[12] = tested on: E. coli ATCC 10536; experiment: In vitro antibacterial activity, MIC (standard strain); format: cell-based; conditions: Escherichia coli, ATCC10536
[13] = tested on: S. epidermidis IID 866; experiment: as above; format: cell-based; conditions: Staphylococcus epidermidis, IID866
[14] = tested on: S. pneumoniae 3227; experiment: In vitro antibacterial activity, MIC (clinical isolates); format: cell-based; conditions: Streptococcus pneumoniae, 3227
[15] = tested on: S. marcescens GN 7577; experiment: In vitro antibacterial activity, MIC (standard strain); format: cell-based; conditions: Serratia marcescens, GN7577
[16] = tested on: Klebsiella pneumoniae KY(GN)6445; experiment: as above; format: cell-based; conditions: Klebsiella pneumoniae
[17] = tested on: Bacteroides fragilis GM 7000; experiment: as above; format: cell-based; conditions: Bacteroides fragilis, GM7000
[18] = tested on: S. faecalis IID 682; experiment: as above; format: cell-based; conditions: Enterococcus faecalis, IID682
[19] = tested on: S. agalactiae 4394; experiment: In vitro antibacterial activity, MIC (clinical isolates); format: cell-based; conditions: Streptococcus agalactiae, 4394
[20] = tested on: Yersinia enterocolitica IID 981; experiment: In vitro antibacterial activity, MIC (standard strain); format: cell-based; conditions: Yersinia enterocolitica, IID981
[21] = tested on: S. faecalis 402; experiment: In vitro antibacterial activity, MIC (clinical isolates); format: cell-based; conditions: Enterococcus faecalis, 402
[22] = tested on: K. pneumoniae 1-220S; experiment: In vitro antibacterial activity, MIC (standard strain); format: cell-based; conditions: Klebsiella pneumoniae, 1220S
[23] = tested on: B. fragilis 0558; experiment: as above; format: cell-based, Bacteroides fragilis; conditions: Bacteroides fragilis, 0558
[24] = tested on: S. agalactiae 4468; experiment: In vitro antibacterial activity, MIC (clinical isolates); format: cell-based; conditions: Streptococcus agalactiae, 4468
[25] = tested on: S. agalactiae 4049; experiment: as above; format: cell-based; conditions: Streptococcus agalactiae, 4049
[26] = tested on: Clostridium perfringens KYA 13123; experiment: microbe, parasite or virus in culture; format: cell-based; conditions: KYA13123
[27] = tested on: S. pneumoniae 15; experiment: In vitro antibacterial activity, MIC (clinical isolates); format: cell-based; conditions: Streptococcus pneumoniae, 15
[28] = tested on: Bacillus subtilis PCI 219; experiment: In vitro antibacterial activity, MIC (standard strain); format: cell-based; conditions: Bacillus subtilis, PCI219
[29] = tested on: S. aureus Smith; experiment: as above; format: cell-based, Staphylococcus aureus; conditions: Staphylococcus aureus; S. aureus Smith; 10^6 cells/ml; standard strain
[30] = tested on: P. mirabilis IID 994; experiment: as above; format: cell-based; conditions: Proteus mirabilis, IID994
[31] = tested on: S. pneumoniae IID 552; experiment: as above; format: cell-based; conditions: Streptococcus pneumoniae, IID552
[32] = tested on: Fusobacterium varium KYA 8501; experiment: as above; format: cell-based; conditions: Fusobacterium varium, KYA8501
[33] = tested on: P. aeruginosa IFO 12689; experiment: as above; format: cell-based, Pseudomonas aeruginosa; conditions: Pseudomonas aeruginosa, IFO12689
[34] = tested on: Salmonella entritidis IID 604; experiment: as above; format: cell-based; conditions: Salmonella, IID604
[35] = tested on: Enterobacter cloacae IID 977; experiment: as above; format: cell-based; conditions: Enterobacter cloacae, IID977
[36] = tested on: Proteus vulgaris IFO 3167; experiment: as above; format: cell-based; conditions: Proteus vulgaris, IFO3167
[37] = tested on: Escherichia coli NIHJ JC-2; experiment: as above; format: cell-based; conditions: Escherichia coli, NIHJJC2
[38] = tested on: S. agalactiae 4470; experiment: In vitro antibacterial activity, MIC (clinical isolates); format: cell-based; conditions: Streptococcus agalactiae, 4470
[39] = tested on: Serratia marcescens IID 618; experiment: In vitro antibacterial activity, MIC (standard strain); format: cell-based; conditions: Serratia marcescens, IID618
[40] = tested on: S. aureus IID 670 (Terajima); experiment: as above; format: cell-based, Staphylococcus aureus; conditions: Staphylococcus aureus, IID670
[41] = tested on: Pseudomonas aeruginosa V-1; experiment: as above; format: cell-based; conditions: Pseudomonas aeruginosa, V1
[42] = tested on: S. pyogenes 3130; experiment: In vitro antibacterial activity, MIC (clinical isolates); format: cell-based; conditions: Streptococcus pyogenes
[43] = tested on: C. ramosum; experiment: In vitro antibacterial activity, MIC (standard strain); format: cell-based; conditions: Thomasclavelia ramosa
[44] = tested on: Staphylococcus aureus 209 P; experiment: as above; format: cell-based; conditions: Staphylococcus aureus, 209P
[45] = tested on: S. faecalis 401; experiment: In vitro antibacterial activity, MIC (clinical isolates); format: cell-based; conditions: Enterococcus faecalis, 401
[46] = tested on: S. faecalis 49; experiment: as above; format: cell-based; conditions: Enterococcus faecalis, 49
[47] = tested on: B. fragilis 25285; experiment: In vitro antibacterial activity, MIC (standard strain); format: cell-based, Bacteroides fragilis; conditions: Bacteroides fragilis, 25285
[48] = tested on: E. coli ML 4707; experiment: as above; format: cell-based; conditions: Escherichia coli, ML4707
[49] = tested on: S. pyogenes 3102; experiment: In vitro antibacterial activity, MIC (clinical isolates); format: cell-based; conditions: Streptococcus pyogenes, 3102
[50] = tested on: S. pneumoniae 2950; experiment: as above; format: cell-based; conditions: Streptococcus pneumoniae, 2950
[51] = tested on: Citrobacter freundii IID 976; experiment: In vitro antibacterial activity, MIC (standard strain); format: cell-based; conditions: Citrobacter freundii, IID976
[52] = tested on: Alcaligenes faecalis 0104002; experiment: as above; format: cell-based; conditions: Alcaligenes faecalis, 0104002
[53] = tested on: S. pyogenes 4340; experiment: In vitro antibacterial activity, MIC (clinical isolates); format: cell-based; conditions: Streptococcus pyogenes, 4340
[54] = tested on: S. pyogenes 4372; experiment: as above; format: cell-based; conditions: Streptococcus pyogenes, 4372

Measured: MIC

NCC1CCN(c2cc3c(cc2F)c(=O)c(C(=O)O)cn3C2CC2)C1 (stereo not drawn) [Example 6, 7-(3-Aminomethyl-l-pyrrolidinyl)-l-cyclopropyl-6-fluoro-l,4-dihydro-4-oxo-3-quinolinecarboxylic acid]
0.78 µg/mL: [4] | [33] | [41]
3.13 µg/mL: [2] | [15] | [26]
12.5 µg/mL: [43] | [47]
0.05 µg/mL: [8] | [11] | [12] | [13] | [28] | [36] | [37] | [40] | [42] | [44] | [48] | [49] | [53]
1.56 µg/mL: [52]
0.39 µg/mL: [3] | [6] | [7] | [18] | [19] | [21] | [25] | [39] | [45] | [46]
0.1 µg/mL: [1] | [16] | [30] | [31] | [51] | [54]
6.25 µg/mL: [17] | [23]
25 µg/mL: [32]
0.2 µg/mL: all other assays above
